Laboratory results taken from patent publication US20200390753A1, “COMBINATION THERAPY USING ENANTIOPURE, OXY-SUBSTITUTED, DEUTERIUM-ENRICHED 5-(BENZYL)-5-DEUTERO-THIAZOLIDINE-2,4-DIONES FOR TREATMENT OF MEDICAL DISORDERS” (priority 2015, published 2020).
Where two headings read alike, the source gives them in different places.

Key:
[1] = for k RS: enantiomerization rate constant h-R-pio to h-S-pio / k SR: enantiomerization rate constant h-S-pio to h-R-pio: 5 M (sic)
[2] = for k RS: enantiomerization rate constant h-R-pio to h-S-pio / k SR: enantiomerization rate constant h-S-pio to h-R-pio: C57BL/6, mouse, 5 M (sic)
C2C12 cells = test: Mitochondrial respiration (mitochondrial stress test, maximal respiration) in C2C12 cells; assay type: cell-based; details: 30 µM for 15, 30, or 90 min, vs vehicle-treated cells; 10 mM sodium pyruvate
Source text: […]. […] […].

db/db mice = test: db/db mouse model of Type II diabetes, 10-day daily oral dosing; assay type: in vivo; details: oral daily 10 days, h-rac-pio 30 mg/kg; for decrease of cytokines IL-1p, IL-6, and TNF-α / decrease of serum amyloid A / effect on non-essential fatty acids (decrease compared with h-rac-pio) / effect on non-fasted blood glucose: d-R-pio 20 mg/kg; for effect on adiponectin / effect on non-essential fatty acids (decrease compared with h-rac-pio) / effect on non-fasted blood glucose: d-S-pio 20 mg/kg
Protocol: Quantitative results were analyzed by statistical methods using, as appropriate, one- or two-way ANOVA or Kruskal-Wallis tests for differences followed by Sidak's, Dunnett's, or Dunn's post-test to determine differences vs. vehicle-treated control animals. All graphs were generated with GraphPad Prism version 6.0.2 (GraphPad Software, Inc., La Jolla, Calif.).

[3] = Body weight gain in male C57BL/6J mice on a standard diet; assay type: in vivo; details: twice daily oral gavage 11 days; overall daily dose h-rac-pio 30 mg/kg, d-S-pio 15 mg/kg, d-R-pio 15 mg/kg
Protocol: Male C57BL/6J mice (about 28 g body weight) were acclimated singly-housed for one week to a reverse light/dark cycle with free access to water and standard maintenance diet. Animals were then handled daily for one week followed by another 7 days of twice daily dosing with vehicle (0.5% methylcellulose in water) by oral gavage. […] Body weights were measured twice daily, prior to each dosing, to adjust individual dosing volumes to actual body weights.

[4] = target: T1, human recombinant monoamine oxidase B (Homo sapiens, UniProt P27338); test: Monoamine oxidase B (MAO-B) inhibition, luminescence; assay type: biochemical
T1 sequence (P27338 1-520): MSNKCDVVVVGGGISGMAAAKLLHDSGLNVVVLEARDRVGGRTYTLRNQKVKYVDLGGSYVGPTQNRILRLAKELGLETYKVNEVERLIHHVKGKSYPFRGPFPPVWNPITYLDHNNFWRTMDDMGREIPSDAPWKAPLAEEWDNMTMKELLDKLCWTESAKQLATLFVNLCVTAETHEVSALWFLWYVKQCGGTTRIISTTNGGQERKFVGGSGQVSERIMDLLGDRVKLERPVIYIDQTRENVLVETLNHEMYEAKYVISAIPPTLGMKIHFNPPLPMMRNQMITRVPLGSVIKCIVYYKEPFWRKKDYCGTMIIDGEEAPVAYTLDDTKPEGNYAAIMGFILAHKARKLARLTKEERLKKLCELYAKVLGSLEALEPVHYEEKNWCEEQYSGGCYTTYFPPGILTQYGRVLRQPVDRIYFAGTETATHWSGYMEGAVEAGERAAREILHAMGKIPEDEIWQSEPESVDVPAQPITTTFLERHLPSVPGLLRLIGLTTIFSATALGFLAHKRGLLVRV
Protocol: The mixtures were incubated at 22° C. for 5 min. Substrate (D-luciferin derivative) was added, and then the mixture was incubated at 37° C. for 60 min. The reaction was stopped by addition of the detection reagent containing luciferase. Luminescence was read after standing for 60 min at room temperature.
Results were expressed as a percentage of the luminescence of the control (enzyme+substrate). IC50 values were obtained by fitting experimental data (mean % luminescence as function of concentration) to the Hill equation with variable slope using non-linear regression analysis.

| SMILES | effect on maximal respiration (oxygen consumption rate) (C2C12 cells) | decrease of cytokines IL-1p, IL-6, and TNF-α (db/db mice; vs vehicle) | decrease of serum amyloid A (db/db mice; vs vehicle) | effect on adiponectin (db/db mice; vs vehicle) | percent body weight difference versus day 1, compared to vehicle [3] | effect on non-essential fatty acids (decrease compared with h-rac-pio) (db/db mice) | effect on non-fasted blood glucose (db/db mice) | k RS: enantiomerization rate constant h-R-pio to h-S-pio ([1]; human) | k SR: enantiomerization rate constant h-S-pio to h-R-pio ([1]; human) | k RS: enantiomerization rate constant h-R-pio to h-S-pio [2] | k SR: enantiomerization rate constant h-S-pio to h-R-pio [2] | further results |
| --- | --- | --- | --- | --- | --- | --- | --- | --- | --- | --- | --- | --- |
| [2H]C1(Cc2ccc(OCCc3ccc(CC)cn3)cc2)SC(=O)NC1=O (racemic) [d-rac-pio] | – | – | – | – | – | – | – | – | – | – | – | t1/2 of h-R-pio (RS*) from averaged kRS ([1]; human, plasma): 96 min; t1/2 of h-S-pio (SR*) from averaged kSR ([1]; human, plasma): 96 min; t1/2 of d-S-pio (k=kDSR+kDSS) ([2]; mouse, plasma): 36 min; t1/2 of h-R-pio (RS*) from averaged kRS ([2]; mouse, plasma): 54 min; t1/2 of h-S-pio (SR*) from averaged kSR ([2]; mouse, plasma): 45 min |
| CCc1ccc(CCOc2ccc(CC3SC(=O)NC3=O)cc2)nc1 (racemic) [h-rac-pio, rac-5-({p-[2-(5-Ethyl-2-pyridyl)ethoxy]phenyl}methyl)-1,3-thiazolidine-2,4-dione, reference compound] | inhibited maximal respiration | trending | statistically significant | significantly increased | statistically significant increase | – | – | – | – | – | – | effect on insulin (db/db mice; vs vehicle): significantly decreased |
| [2H][C@]1(Cc2ccc(OCCc3ccc(CC)cn3)cc2)SC(=O)NC1=O [d-R-pio, (R)-5-({p-[2-(5-Ethyl-2-pyridyl)ethoxy]phenyl}methyl)-(5-^2H)-1,3-thiazolidine-2,4-dione] | inhibited maximal respiration | trending | statistically significant | – | did not increase | a similar trend was observed | decreased non-fasted blood glucose to approximately the same extent as h-rac-pio | – | – | – | – | difference in inhibition efficacy between d-R-pio and d-S-pio [4]: greater than 5 fold |
| [2H][C@@]1(Cc2ccc(OCCc3ccc(CC)cn3)cc2)SC(=O)NC1=O [d-S-pio, (S)-5-({p-[2-(5-Ethyl-2-pyridyl)ethoxy]phenyl}methyl)-(5-^2H)-1,3-thiazolidine-2,4-dione] | no significant measurable effect | – | – | significantly increased | statistically significant increase | a similar trend was observed | decreased non-fasted blood glucose to approximately the same extent as h-rac-pio | – | – | – | – | half-life of d-S-pio compared with h-S-pio ([1]; plasma): approximately the same as the half-life for h-S-pio |
| CCc1ccc(CCOc2ccc(C[C@H]3SC(=O)NC3=O)cc2)nc1 [h-R-pio] | – | – | – | – | – | – | – | 0.447 h⁻¹ | 0.439 h⁻¹ | 0.694 h⁻¹ | 0.867 h⁻¹ | – |
| CCc1ccc(CCOc2ccc(C[C@@H]3SC(=O)NC3=O)cc2)nc1 [h-S-pio] | – | – | – | – | – | – | – | 0.434 h⁻¹ | 0.427 h⁻¹ | 0.792 h⁻¹ | 0.979 h⁻¹ | – |
